Experimental data published in patent US20070099841A1, “Prodrugs of T3 and T4 with enhanced bioavailability” (New River Pharmaceuticals Inc., priority 2005, published 2007).
Several values for one entry are separate records, joined by “and”; a condition that tells them apart may be missing. Equal values may be shown once.

Columns and labels:
[1] = design: species or system Sprague-Dawley rats; details: rat, in vivo
Protocol: Compounds were tested in Sprague-dawley rats (˜250 g). Defined doses were delivered as oral solutions in 0.5% sodium bicarbonate buffer with T3 sodium salt containing 12 mcgT3/kg or triiodothyronine composition containing the equivalent amount of T3. Rats were dosed immediately following 0 hour serum collection. Serum was collected from rats at 2, 4, 6, 9, 12 and 24 hours after capsule delivery. Total serum T3 concentrations were determined by ELISA using a commercially available kit (Total Triiodothyronine (total T3) ELISA KIT, product #1700, ALPHA DIAGNOSTIC, San Antonio, Tex.). Total serum T4 concentrations were determined by ELISA using a commercially available kit (Total Thyronine (Total T4) ELISA KIT, product #1100, ALPHA DIAGNOSTIC, San Antonio, Tex.).
The general procedures described above were employed for the experimental data described below. These procedures are subject to minor variations in timing and weight of rats, etc.
(§1) T3 sodium, G-T3, V-T3, I-T3, Y-T3, A2-T3, P2-T3, or F2-T3 were administered at equimolar doses to Sprague-Dawley rats (12 μg/kg T3; HED˜120 μg T3 sodium; n=6, per group) that were hypothyroid due to removal of the thyroid gland approximately one week prior to evaluation. Serum was collected at 0 (pre-dose), 1, 2, 4, 6, 8 and 12 hours post-dose and analyzed for total T3 and TSH by chemiluminescent immunoassay (Immulite CIA). […] At 1 hour post dose the mean level of Total T3 was 327.3, 429.5, 432.7, 403.3, 431, and 433.1 ng/ml for G-T3, V-T3, I-T3, Y-T3, P2-T3, and F2-T3 dosed animals respectively as compared to 577 ng/ml for T3 sodium dosed animals. Applicants note that some variation in these values may be present as with A2-T3 (FIGS. 15 and 16).

TSH = test: Serum TSH after oral administration to hypothyroid rats (chemiluminescent immunoassay); assay type: in vivo, Sprague-Dawley rats; details: for Individual animal TSH: individual animals 1-6, oral 12 μg/kg T3
Protocol: as §1

## N[C@@H](Cc1cc(I)c(Oc2ccc(O)c(I)c2)c(I)c1)C(=O)O [T3 sodium, 3,3′,5-triiodo-L-thyronine]
[1]; Sprague-Dawley
  Tmax, % T3: 100%
  Tmax, Low − High: 1 − 6
  Total T3 AUC, % (of T3): 100%
  Total T3 AUClast, % T3: 100%
  Total T3 Cmax, % T3: 100%
  Total T3Δ AUClast, % T3: 100%
  Total T3Δ Cmax, % T3: 100%
  Total T3Δ dAUC, % (of T3): 100%
[1]; Sprague-Dawley, po, 12 ug/kg
  Total T3 Tmax: 3.2 h
  Total T3 Tmax, mean: 3.2 h
  Total T3Δ Tmax, mean: 3.2 h
[1]; Sprague-Dawley, po, 1 h
  mean level of Total T3 at 1 hour post dose: 577 ng/mL
[1]
  Total T3 AUClast, Low − High: 4292 − 6421 ng · h/dL
  Total T3 Cmax, Low − High: 484 − 915 ng/dL
  Total T3Δ AUClast, Low − High: 3688 − 5526 ng · h/dL
  Total T3Δ Cmax, Low − High: 444 − 875 ng/dL
[1]; po, 12 ug/kg
  Total T3 AUC: 5171
TSH; 0 h (pre-dose)
  Individual animal TSH: 1.840 μIU and 2.296 μIU and 2.088 μIU and 2.480 μIU and 1.884 μIU and 2.572 μIU
TSH; 0 h (pre-dose), mean n=6, oral 12 μg/kg T3
  TSH, mean: 2.193 μIU
TSH; 1 h
  Individual animal TSH: 1.680 μIU and 1.796 μIU and 1.924 μIU and 2.580 μIU and 1.868 μIU and 2.344 μIU
TSH; 1 h, mean n=6, oral 12 μg/kg T3
  TSH, mean: 2.032 μIU
TSH; 2 h
  Individual animal TSH: 1.264 μIU and 1.284 μIU and 0.920 μIU and 1.116 μIU and 1.080 μIU and 1.180 μIU
TSH; 2 h, mean n=6, oral 12 μg/kg T3
  TSH, mean: 1.141 μIU
TSH; 4 h
  Individual animal TSH: 0.240 μIU and 0.252 μIU (2×) and 0.204 μIU and 0.200 μIU and 0.312 μIU
TSH; 4 h, mean n=6, oral 12 μg/kg T3
  TSH, mean: 0.243 μIU
TSH; 6 h
  Individual animal TSH: 0.116 μIU and 0.140 μIU and 0.136 μIU and 0.120 μIU (2×) and 0.160 μIU
TSH; 6 h, mean n=6, oral 12 μg/kg T3
  TSH, mean: 0.132 μIU
TSH; 8 h
  Individual animal TSH: 0.080 μIU and 0.156 μIU and 0.152 μIU and 0.132 μIU and 0.108 μIU and 0.188 μIU
TSH; 8 h, mean n=6, oral 12 μg/kg T3
  TSH, mean: 0.136 μIU
TSH; 12 h
  Individual animal TSH: 0.120 μIU and 0.260 μIU and 0.256 μIU and 0.416 μIU and 0.300 μIU
TSH; 12 h, mean n=6, oral 12 μg/kg T3
  TSH, mean: 0.270 μIU
TSH; 12 h, mean n=6, oral 12 μg/kg T3, listed as T3
  TSH, mean: 0.27 μIU
TSH; oral 12 μg/kg T3
  TSH levels in response to administration: decreased rapidly
